Source: PubChem BioAssay AID1963834 (Molecular Pharmacology Branch, DTP, NCI, 2024)

Test system: 873145-292-R-J1-PDC complex spheroid viability
Test: Anticancer human tumor 873145-292-R-J1-PDC patient-derived renal clear cell carcinoma cell line growth inhibition [POLQ]
Conditions: for IC50: curve of first compound; for viability, T/C: stronger effect = lower value; active = viability on the fitted dose curve at most 10% of control; inactive = the rest
In short: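 Growth inhibition in 3D: complex spheroids (tumor PDC, HUVEC, MSC) treated with POLQ inhibitor combinations; where Cmax unknown, highest tested concentration 10 microM, except SN-38 at 1 microM.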

[1] = second compound 0.0316 µM, first compound 0.00316 µM
[2] = second compound 0.0316 µM, first compound 0.01 µM
[3] = second compound 0.0316 µM, first compound 0.0316 µM
[4] = second compound 0.0316 µM, first compound 0.1 µM
[5] = second compound 0.0316 µM, first compound 0.316 µM
[6] = second compound 0.0316 µM, first compound 1 µM
[7] = second compound 0.1 µM, first compound 0.00316 µM
[8] = second compound 0.1 µM, first compound 0.01 µM
[9] = second compound 0.1 µM, first compound 0.0316 µM
[10] = second compound 0.1 µM, first compound 0.1 µM
[11] = second compound 0.1 µM, first compound 0.316 µM
[12] = second compound 0.1 µM, first compound 1 µM
[13] = second compound 0.316 µM, first compound 0.00316 µM
[14] = second compound 0.316 µM, first compound 0.01 µM
[15] = second compound 0.316 µM, first compound 0.0316 µM
[16] = second compound 0.316 µM, first compound 0.1 µM
[17] = second compound 0.316 µM, first compound 0.316 µM
[18] = second compound 0.316 µM, first compound 1 µM
[19] = second compound 1 µM, first compound 0.00316 µM
[20] = second compound 1 µM, first compound 0.01 µM
[21] = second compound 1 µM, first compound 0.0316 µM
[22] = second compound 1 µM, first compound 0.1 µM
[23] = second compound 1 µM, first compound 0.316 µM
[24] = second compound 1 µM, first compound 1 µM
[25] = second compound 3.16 µM, first compound 0.00316 µM
[26] = second compound 3.16 µM, first compound 0.01 µM
[27] = second compound 3.16 µM, first compound 0.0316 µM
[28] = second compound 3.16 µM, first compound 0.1 µM
[29] = second compound 3.16 µM, first compound 0.316 µM
[30] = second compound 3.16 µM, first compound 1 µM
[31] = second compound 10 µM, first compound 0.00316 µM
[32] = second compound 10 µM, first compound 0.01 µM
[33] = second compound 10 µM, first compound 0.0316 µM
[34] = second compound 10 µM, first compound 0.1 µM
[35] = second compound 10 µM, first compound 0.316 µM
[36] = second compound 10 µM, first compound 1 µM
[37] = second compound 0.0316 µM, first compound 3.16 µM
[38] = second compound 0.0316 µM, first compound 10 µM
[39] = second compound 0.1 µM, first compound 3.16 µM
[40] = second compound 0.1 µM, first compound 10 µM
[41] = second compound 0.316 µM, first compound 3.16 µM
[42] = second compound 0.316 µM, first compound 10 µM
[43] = second compound 1 µM, first compound 3.16 µM
[44] = second compound 1 µM, first compound 10 µM
[45] = second compound 3.16 µM, first compound 3.16 µM
[46] = second compound 3.16 µM, first compound 10 µM
[47] = second compound 10 µM, first compound 3.16 µM
[48] = second compound 10 µM, first compound 10 µM
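Also: spheroids exposed to compounds for 7 days before viability readout.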
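For viability, T/C in this document: luminescence signal used as surrogate for viable cell content; 100% = DMSO vehicle control viability.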

C=CCn1c(=O)c2cnc(Nc3ccc(N4CCN(C)CC4)cc3)nc2n1-c1cccc(C(C)(C)O)n1 + COC1C(OC(N)=O)C(O)C(Oc2ccc3c(O)c(NC(=O)c4ccc(O)c(CC=C(C)C)c4)c(=O)oc3c2C)OC1(C)C
> 1 µM: IC50 (second compound 0.0316 µM) | IC50 (second compound 0.1 µM) | IC50 (second compound 0.316 µM) | IC50 (second compound 1 µM) | IC50 (second compound 3.16 µM) | IC50 (second compound 10 µM)
inactive: viability, T/C [1] 98.9% | viability, T/C [2] 109% | viability, T/C [3] 89.8% | viability, T/C [4] 85.5% | viability, T/C [5] 90.7% | viability, T/C [6] 70.1% | viability, T/C [7] 102% | viability, T/C [8] 97.6% | viability, T/C [9] 100% | viability, T/C [10] 95.5% | viability, T/C [11] 84.9% | viability, T/C [12] 69.9% | viability, T/C [13] 100% | viability, T/C [14] 109% | viability, T/C [15] 96% | viability, T/C [16] 97.7% | viability, T/C [17] 83.5% | viability, T/C [18] 74.5% | viability, T/C [19] 98.8% | viability, T/C [20] 96% | viability, T/C [21] 99.6% | viability, T/C [22] 83.2% | viability, T/C [23] 94.6% | viability, T/C [24] 63.1% | viability, T/C [25] 100% | viability, T/C [26] 98.8% | viability, T/C [27] 89.5% | viability, T/C [28] 89.5% | viability, T/C [29] 88.3% | viability, T/C [30] 75.7% | viability, T/C [31] 100% | viability, T/C [32] 92.1% | viability, T/C [33] 101% | viability, T/C [34] 96.8% | viability, T/C [35] 76.5% | viability, T/C [36] 72%

CCc1c2c(nc3ccc(O)cc13)-c1cc3c(c(=O)n1C2)COC(=O)[C@]3(O)CC + COC1C(OC(N)=O)C(O)C(Oc2ccc3c(O)c(NC(=O)c4ccc(O)c(CC=C(C)C)c4)c(=O)oc3c2C)OC1(C)C
0.0637 µM: IC50 (second compound 0.1 µM)
0.0829 µM: IC50 (second compound 10 µM)
inactive: viability, T/C [1] 108% | viability, T/C [2] 86.7% | viability, T/C [3] 58.6% | viability, T/C [4] 47.1% | viability, T/C [5] 40.6% | viability, T/C [6] 28.6% | viability, T/C [7] 96.4% | viability, T/C [8] 92.1% | viability, T/C [9] 53.7% | viability, T/C [10] 48.4% | viability, T/C [11] 36.7% | viability, T/C [12] 26.9% | viability, T/C [13] 103% | viability, T/C [14] 83% | viability, T/C [15] 59.2% | viability, T/C [16] 43.2% | viability, T/C [17] 39.7% | viability, T/C [18] 28.6% | viability, T/C [19] 104% | viability, T/C [20] 87.2% | viability, T/C [21] 58.1% | viability, T/C [22] 36.6% | viability, T/C [23] 39.4% | viability, T/C [24] 28.7% | viability, T/C [25] 99.8% | viability, T/C [26] 77.1% | viability, T/C [27] 57% | viability, T/C [28] 42.2% | viability, T/C [29] 37.6% | viability, T/C [30] 27.2% | viability, T/C [31] 99.7% | viability, T/C [32] 75.4% | viability, T/C [33] 53.4% | viability, T/C [34] 55.4% | viability, T/C [35] 39.2% | viability, T/C [36] 26.2%
0.0678 µM: IC50 (second compound 0.316 µM)
0.0504 µM: IC50 (second compound 1 µM)
0.0788 µM: IC50 (second compound 0.0316 µM)
0.0598 µM: IC50 (second compound 3.16 µM)

COc1cc(C2c3cc4c(cc3C(OC3OC5COC(C)OC5C(O)C3O)C3COC(=O)C23)OCO4)cc(OC)c1O (stereo not drawn) + COC1C(OC(N)=O)C(O)C(Oc2ccc3c(O)c(NC(=O)c4ccc(O)c(CC=C(C)C)c4)c(=O)oc3c2C)OC1(C)C
inactive: viability, T/C [3] 104% | viability, T/C [4] 108% | viability, T/C [5] 103% | viability, T/C [6] 99.1% | viability, T/C [37] 80.3% | viability, T/C [38] 57.2% | viability, T/C [9] 112% | viability, T/C [10] 101% | viability, T/C [11] 101% | viability, T/C [12] 96.2% | viability, T/C [39] 72.5% | viability, T/C [40] 53.8% | viability, T/C [15] 114% | viability, T/C [16] 99.4% | viability, T/C [17] 100% | viability, T/C [18] 87.4% | viability, T/C [41] 72.9% | viability, T/C [42] 54.3% | viability, T/C [21] 96.2% | viability, T/C [22] 95.5% | viability, T/C [23] 101% | viability, T/C [24] 86.2% | viability, T/C [43] 79% | viability, T/C [44] 53.4% | viability, T/C [27] 107% | viability, T/C [28] 106% | viability, T/C [29] 104% | viability, T/C [30] 86.6% | viability, T/C [45] 70.9% | viability, T/C [46] 57.7% | viability, T/C [33] 103% | viability, T/C [34] 103% | viability, T/C [35] 95.5% | viability, T/C [36] 94.5% | viability, T/C [47] 76.7% | viability, T/C [48] 67.2%
> 10 µM: IC50 (second compound 0.0316 µM) | IC50 (second compound 0.1 µM) | IC50 (second compound 0.316 µM) | IC50 (second compound 1 µM) | IC50 (second compound 3.16 µM) | IC50 (second compound 10 µM)

O=C(c1cc(Cc2n[nH]c(=O)c3ccccc23)ccc1F)N1CCN(C(=O)C2CC2)CC1 + COC1C(OC(N)=O)C(O)C(Oc2ccc3c(O)c(NC(=O)c4ccc(O)c(CC=C(C)C)c4)c(=O)oc3c2C)OC1(C)C
> 10 µM: IC50 (second compound 0.0316 µM) | IC50 (second compound 0.1 µM) | IC50 (second compound 0.316 µM) | IC50 (second compound 1 µM) | IC50 (second compound 3.16 µM) | IC50 (second compound 10 µM)
inactive: viability, T/C [3] 112% | viability, T/C [4] 94.8% | viability, T/C [5] 106% | viability, T/C [6] 97.2% | viability, T/C [37] 109% | viability, T/C [38] 103% | viability, T/C [9] 117% | viability, T/C [10] 94.9% | viability, T/C [11] 90.8% | viability, T/C [12] 96.2% | viability, T/C [39] 92.6% | viability, T/C [40] 100% | viability, T/C [15] 106% | viability, T/C [16] 97.5% | viability, T/C [17] 93.2% | viability, T/C [18] 90.8% | viability, T/C [41] 103% | viability, T/C [42] 93.2% | viability, T/C [21] 94.5% | viability, T/C [22] 104% | viability, T/C [23] 100% | viability, T/C [24] 87.2% | viability, T/C [43] 101% | viability, T/C [44] 103% | viability, T/C [27] 108% | viability, T/C [28] 107% | viability, T/C [29] 106% | viability, T/C [30] 94.2% | viability, T/C [45] 99.5% | viability, T/C [46] 96.2% | viability, T/C [33] 88% | viability, T/C [34] 103% | viability, T/C [35] 96.3% | viability, T/C [36] 92.2% | viability, T/C [47] 107% | viability, T/C [48] 97.2%
